The results in this text go back to the NIST ThermoML archive (doi:10.1016/j.jct.2013.09.032).

For data set [1] the following is noted: for mass density / viscosity: 101.33 kPa, Liquid; for mass density: Vibrating tube method; for viscosity: Falling or rolling sphere viscometry.
Data set [2] can be described thus: refractive index (Na D-line) (dimensionless). The note with it: 101.33 kPa, Liquid, Standard Abbe refractometry.

SMILES strings stand for the structures. ± gives the expanded uncertainty stated by the source.

A word on the mass density: it is the mass of a sample divided by its volume. As for `CCCC[n+]1cccc(C#N)c1.O=S(=O)([N-]S(=O)(=O)C(F)(F)F)C(F)(F)F` [1-butyl-3-cyanopyridinium bis(trifluoromethylsulfonyl)imide], in data set [1] (298.15 K), the mass density is 1479.79 ± 2.1 kg/m3.

By viscosity is commonly meant the resistance of a fluid to flow. In the case of `CCCC[n+]1ccc(C#N)cc1.O=S(=O)([N-]S(=O)(=O)C(F)(F)F)C(F)(F)F` [1-butyl-4-cyanopyridinium bis(trifluoromethylsulfonyl)imide], the mass density in data set [1] (278.15 K) was determined as 1492.99 ± 2.1 kg/m3; in data set [1] (288.15 K) it was 1483.58 ± 2.1 kg/m3; in data set [1] (298.15 K), 1474.23 ± 2.1 kg/m3; in data set [1] (308.15 K) it was 1465.05 ± 2 kg/m3; in data set [1] (318.15 K) it was 1455.88 ± 2 kg/m3; in data set [1] (328.15 K) it was 1446.76 ± 2 kg/m3. Further, the mass density in data set [1] (338.15 K) amounted to 1437.73 ± 2 kg/m3; in data set [1] (348.15 K), 1428.78 ± 2 kg/m3; in data set [1] (358.15 K) it was 1419.9 ± 1.9 kg/m3. Besides, the viscosity in data set [1] (308.15 K) was determined as 250.45 ± 14 mPa·s; in data set [1] (318.15 K), 138.28 ± 5.4 mPa·s; in data set [1] (328.15 K) it was 83.59 ± 2.3 mPa·s; in data set [1] (338.15 K), 54.47 ± 1.2 mPa·s; in data set [1] (348.15 K), 37.59 ± 0.89 mPa·s; in data set [1] (358.15 K) it was 27.24 ± 0.65 mPa·s. Also, the Glass transition temperature in data set [1] (Glass, DTA) is -54 ± 3.8 °C.

For the compound `CCCCCC[n+]1ccc(C#N)cc1.O=S(=O)([N-]S(=O)(=O)C(F)(F)F)C(F)(F)F` [1-hexyl-4-cyanopyridinium bis(trifluoromethylsulfonyl)imide], in data set [1] (298.15 K), the mass density worked out at 1407 ± 1.9 kg/m3.

As usually defined, the refractive index is a measure of how strongly the sample bends light. As to `CC(C)=O` [acetone], the refractive index in data set [2] (298.15 K) came to 1.356 ± 0.0007. Also, the mass density in data set [1] (298.15 K) was determined as 785.23 ± 1 kg/m3.

Turning to `c1ccc2sccc2c1` [benzo[b]thiophene], the refractive index in data set [2] (310.15 K) was determined as 1.638 ± 0.0007. Besides, the mass density in data set [1] (308.15 K) came out at 1150.55 ± 1.1 kg/m3; in data set [1] (310.15 K) it was 1149.31 ± 1.1 kg/m3; in data set [1] (313.15 K), 1146.05 ± 1.1 kg/m3; in data set [1] (318.15 K), 1141.56 ± 1.1 kg/m3; in data set [1] (323.15 K), 1137.07 ± 1.1 kg/m3; in data set [1] (328.15 K) it was 1132.58 ± 1.1 kg/m3. In addition, the mass density in data set [1] (333.15 K) is listed as 1128.08 ± 1.1 kg/m3; in data set [1] (338.15 K) it was 1123.59 ± 1 kg/m3; in data set [1] (343.15 K) it was 1119.1 ± 1 kg/m3; in data set [1] (348.15 K), 1114.61 ± 1 kg/m3; in data set [1] (353.15 K), 1110.11 ± 1 kg/m3; in data set [1] (358.15 K), 1105.61 ± 1 kg/m3. In data set [1] (363.15 K), the mass density was 1101.11 ± 1 kg/m3.

For `CCCCCCC` [heptane], in data set [2] (298.15 K), the refractive index came to 1.38519 ± 0.00068. Also, in data set [1] (298.15 K), the mass density stood at 679.48 ± 1 kg/m3.

As to `CCCO` [propan-1-ol], the refractive index in data set [2] (298.15 K) worked out at 1.38375 ± 0.00068. In data set [1] (298.15 K), the mass density was 799.52 ± 1 kg/m3.

On to `c1ccsc1` [thiophene], for which the refractive index in data set [2] (298.15 K) was 1.52527 ± 0.0007. For the same compound, the mass density in data set [1] (298.15 K) turned out to be 1058.64 ± 1 kg/m3.
